How the values were obtained:
[1] = biological target: T1, COX-1 (Homo sapiens, UniProt P23219); assay: COX-1 enzyme inhibition study (human platelets, endogenous arachidonic acid, EIA of PGE2); assay type: biochemical
T1 construct: the source material was human platelets using endogenous arachidonic acid; endogenous in cells; host or cells: human platelets
Procedure: COX-1 enzyme inhibition study was performed using a protocol similar to protocols previously described (see e.g., Riendeau D, et al. in Brit. J. Pharmacol. (1997) 121:105-117; or Warner et al. in Proc. Natl. Acad.Sci. (1999) 96:7563-7568). Typically, the source material was human platelets using endogenous arachidonic acid (Vehicle 1% DMSO) at a preincubation time of 15 min at 37 Centigrades and an incubation time of 15 min at 37 Centigrades (Incubation buffer was HBSS buffer with 15mM HEPES pH7.4). Quantitative analysis was performed via EIA determination of PGE2.

[2] = biological target: T2, COX-2 (Homo sapiens, UniProt P35354); assay: COX-2 enzyme inhibition study (human recombinant, Sf9 cells, 0.3 microM arachidonic acid, PGE2 determination); assay type: biochemical
T2 construct: host or cells: Sf9 insect cells
T2 sequence (P35354 18-604): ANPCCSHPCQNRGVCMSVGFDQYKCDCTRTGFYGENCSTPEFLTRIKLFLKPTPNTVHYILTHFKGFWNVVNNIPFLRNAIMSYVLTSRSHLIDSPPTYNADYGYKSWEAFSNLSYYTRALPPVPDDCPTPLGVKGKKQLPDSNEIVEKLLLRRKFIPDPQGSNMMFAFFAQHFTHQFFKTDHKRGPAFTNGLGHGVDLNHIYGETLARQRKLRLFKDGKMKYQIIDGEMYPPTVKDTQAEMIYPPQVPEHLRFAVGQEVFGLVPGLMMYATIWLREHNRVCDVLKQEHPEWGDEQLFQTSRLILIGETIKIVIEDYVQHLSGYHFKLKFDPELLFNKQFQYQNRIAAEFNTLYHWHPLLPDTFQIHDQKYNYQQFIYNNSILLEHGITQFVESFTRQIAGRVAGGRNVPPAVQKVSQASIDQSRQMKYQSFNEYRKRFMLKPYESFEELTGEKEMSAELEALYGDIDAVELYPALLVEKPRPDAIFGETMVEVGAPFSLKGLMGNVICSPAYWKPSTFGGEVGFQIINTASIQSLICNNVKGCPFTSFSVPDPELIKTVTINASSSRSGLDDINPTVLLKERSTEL
Procedure: COX-2 enzyme inhibition study was performed using a protocol similar to protocols previously described (see e.g., Riendeau D, et al. in Can. J. Physiol. Pharmacol. (1997) 75:1088-11095; or Warner et al. in Proc. Natl. Acad.Sci. (1999) 96:7563-7568). Typically, the source material was human recombinant Sf9 cells using 0.3 microM arachidonic acid (Vehicle 1% DMSO) at a preincubation time of 15 min at 37 Centigrades and an incubation time of 15 min at 37 Centigrades (Incubation buffer was 100 mM Tris 1 mM Glutathione, 1 microM hematin, and 0.5mM phenol, pH7.7). Quantitative analysis was performed via ETA determination of PGE2.

T1 sequence (P23219 24-599): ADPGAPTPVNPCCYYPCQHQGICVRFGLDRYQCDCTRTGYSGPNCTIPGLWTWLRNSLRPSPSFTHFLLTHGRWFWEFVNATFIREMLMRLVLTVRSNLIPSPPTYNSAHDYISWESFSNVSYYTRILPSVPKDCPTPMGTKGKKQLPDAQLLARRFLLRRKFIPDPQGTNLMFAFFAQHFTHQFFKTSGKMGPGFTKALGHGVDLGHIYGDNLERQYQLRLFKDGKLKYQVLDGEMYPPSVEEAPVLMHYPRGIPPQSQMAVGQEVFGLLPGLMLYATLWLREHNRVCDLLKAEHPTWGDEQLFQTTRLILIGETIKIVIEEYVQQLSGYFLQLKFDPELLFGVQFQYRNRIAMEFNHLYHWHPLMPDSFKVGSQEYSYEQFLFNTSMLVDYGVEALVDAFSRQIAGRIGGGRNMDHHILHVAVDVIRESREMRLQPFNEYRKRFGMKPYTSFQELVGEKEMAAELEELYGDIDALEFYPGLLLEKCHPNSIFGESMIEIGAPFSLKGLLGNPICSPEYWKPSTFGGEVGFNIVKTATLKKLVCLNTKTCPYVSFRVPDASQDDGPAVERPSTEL

Selectivity COX-1 to COX-2 ([1]; ratio of IC50 values, COX-1 over COX-2)	Substance	COX-1 IC50 [1] [µg/mL]	COX-1 (% Inhib.) ([1]; concentration 100 μg/ml) [%]	COX-1 (% Inhib.) ([1]; concentration 1000 μg/ml) [%]	COX-1 (% Inhib.) ([1]; concentration 10 mg/ml) [%]	COX-2 IC50 [2] [mg/mL]	COX-2 (% Inhib.) ([2]; concentration 100 μg/ml) [%]	COX-2 (% Inhib.) ([2]; concentration 1000 μg/ml) [%]	COX-2 (% Inhib.) ([2]; concentration 10 mg/ml) [%]	Selectivity COX-2 to COX-1 ([2]; ratio of IC50 values, COX-2 over COX-1)
least 45-fold	Calcium Fructoborate	222	29	85	95	>10	8	12	10	–
–	Potassium Boroascorbate	8570	−5	−2	69	<0.1	77	73	71	least 85-fold

Source: patent US6924269B2, “Enzyme inhibitors and methods therefor” (VDF Futureceuticals, Inc., priority 2002, dated 2005)
